Tests used:
[1] = system: rape (Petranova); experiment: Promotion of shoot growth of rape, greenhouse; assay type: in vivo; conditions: applied by watering 10 days after sowing; 3 weeks after treatment
Procedure: (§1) In these tests various types of non-sterile soils were used. The cultivation of the plants was carried out under greenhouse or climatic chamber conditions. The active compounds according to the invention were applied uniformly distributed over the soil surface in an aqueous preparation after the emergence of the respective test plants. The supply of water for the plants was carrried out using the same technique, always paying attention to uniform moistness of the soil. In the case of the cultivation of legumes, defined amounts of species-specific Rhizobia were admixed to the soil. In some cases inoculation was also carried out by seed treatment.
Wheat (Ralle) and rape (Petranova) plants were cultured under greenhouse conditions in low N Limburgerhof soil in plastic pots (500 ml) and watered from above as required. The water content of the soil here was about 80% of the maximum water capacity. A few days after emergence the plants were thinned out to 40 plants per pot.
10 days after sowing aqueous preparations of 2.3.1.3 were applied by watering to 8 pots per test series in each case. 16 pots in each case remained untreated. 3 weeks after treatment the fresh shoot weight of the plants was determined.

[2] = system: Peas (Kleine Rheinländerin); experiment: Peas test 2b: biomass and root nodules, greenhouse; assay type: in vivo, Pisum sativum; conditions: 12 days after treatment; for Dry matter (shoot + root): control 2.55; for Nodules: control 20
Procedure: as §1
b) Peas (Kleine Rheinländerin) were cultivated under greenhouse conditions in low N Limburgerhof soil in plastic pots (500 ml) and watered from above as required (constant weight). A few days after emergence the plants were thinned out to 5 plants per pot.
In four pots in each case aqueous active compound solutions of one concentration of 2.3.1.3 were applied by watering. Four pots remained untreated.
12 days after treatment the following results were obtained: […]

[3] = system: Peas (Field Peas VNS); experiment: Peas test 2c: root nodules, root and shoot biomass, greenhouse; assay type: in vivo, Pisum sativum; conditions: 30 days after treatment; for Nodules: untreated 6.1; for Dry matter root: untreated 275; for Dry matter shoot: untreated 459
Procedure: as §1, with “treatment. c) Peas (Field Peas VNS) were cultivated under greenhouse conditions in low N, sandy loam soil in plastic pots (750 ml) and watered from above as required. A few days after emergence the plants were thinned out to 7 plants per pot. In 5 pots in each case 25 ml each of an aqueous preparation of one concentration of 2.3.1.3 were applied by watering. 5 pots remained untreated. 30 days after treatment the following results were obtained: […]” for “treatment.”

[4] = system: Soybeans (A 5403); experiment: Soybeans test 3d: root nodules, root and shoot biomass, greenhouse; assay type: in vivo, Glycine max; conditions: 30 days after treatment; for Nodules: untreated 38.3; for Dry matter root: untreated 1955; for Dry matter shoot: untreated 3616
Procedure: as §1, with “treatment. d) Soybeans (A 5403) were cultivated under greenhouse conditions in low N, sandy loam soil in plastic pots (750 ml) and watered from above as required. A few days after emergence the plants were thinned out to 3 plants per pot. In 5 pots in each case 25 ml each of an aqueous preparation of one concentration of 2.3.1.3 were applied by watering. 5 pots remained untreated. 30 days after treatment the following results were obtained: […]” for “treatment.”

[5] = system: Bean plants (Small Seeded Bell); experiment: Field beans: root nodules, root and shoot biomass, greenhouse; assay type: in vivo, Vicia faba; conditions: 25 days after treatment; for Nodules: untreated 30.9; for Dry matter root: untreated 1090; for Dry matter shoot: untreated 2310
Procedure: as §1
Bean plants (Small Seeded Bell) were cultivated under greenhouse conditions in low N, sandy loam soil in plastic pots (750 ml) and watered from above as required. A few days after emergence the plants were thinned out to 3 plants per pot.
In 5 pots in each case 25 ml each of an aqueous preparation of one concentration of 2.3.1.3 were applied by watering. 5 pots remained untreated.
(§2) 25 days after treatment the following results were obtained: […]

[6] = system: Lucerne plants (Maricopa); experiment: Lucerne: root nodules and shoot biomass, greenhouse; assay type: in vivo, Medicago sativa; conditions: 25 days after treatment; for Root nodules: untreated 10.5; for Dry matter shoot: untreated 180
Procedure: as §1
Lucerne plants (Maricopa) were cultivated under greenhouse conditions in low N, sandy loam soil in plastic pots (750 ml) and watered from above as required. A few days after emergence the plants were thinned out to 3 plants per pot.
In 5 pots in each case 25 ml of an aqueous preparation of one concentration of 2.3.1.3 were applied by watering. 5 pots remained untreated.
as §2

In the case of `COC(=O)COC(=O)CON=C(C)C` [active compound 2.3.1.3], the “shoot growth (fresh shoot weight)” value [1] is reported as “shoot growth was promoted in nearly all cases”, the “Dry matter (shoot + root)” value ([2]; 0.001 mg/pot) is reported as 2.65 g/pot and the Nodules ([2]; 0.001 mg/pot) is reported as 31 number/pot. For the same compound, the “Dry matter (shoot + root)” value ([2]; 0.003 mg/pot) was 3.07 g/pot, the Nodules ([2]; 0.003 mg/pot) was 68 number/pot and the “Dry matter (shoot + root)” value ([2]; 0.010 mg/pot) was 3.00 g/pot. For the same compound, the Nodules ([2]; 0.010 mg/pot) was 66 number/pot, the “Dry matter (shoot + root)” value ([2]; 0.030 mg/pot (insect attack)) was 2.32 g/pot and the Nodules ([2]; 0.030 mg/pot (insect attack)) was 30 number/pot. The “Dry matter (shoot + root)” value ([2]; 0.100 mg/pot) was 2.52 g/pot, the Nodules ([2]; 0.100 mg/pot) was 59 number/pot and the “Dry matter (shoot + root)” value ([2]; 0.300 mg/pot) was 3.13 g/pot. The Nodules ([2]; 0.300 mg/pot) was 76 number/pot, the Nodules ([3]; 3 g of a.s./ha) was 41.5 number/plant and the Dry matter root ([3]; 3 g of a.s./ha) was 849 mg/plant. It also gave a Dry matter shoot ([3]; 3 g of a.s./ha) of 1064 mg/plant, a Nodules ([3]; 30 g of a.s./ha) of 39.4 number/plant and a Dry matter root ([3]; 30 g of a.s./ha) of 704 mg/plant. It also gave a Dry matter shoot ([3]; 30 g of a.s./ha) of 795 mg/plant, a Nodules ([3]; 300 g of a.s./ha) of 56.1 number/plant and a Dry matter root ([3]; 300 g of a.s./ha) of 945 mg/plant. The Dry matter shoot ([3]; 300 g of a.s./ha) was 1209 mg/plant, the Nodules ([4]; 3 g of a.s./ha) was 47.6 number/plant and the Dry matter root ([4]; 3 g of a.s./ha) was 2806 mg/plant. The Dry matter shoot ([4]; 3 g of a.s./ha) was 4020 mg/plant, the Nodules ([4]; 300 g of a.s./ha) was 54.9 number/plant and the Dry matter root ([4]; 300 g of a.s./ha) was 1326 mg/plant. For the same compound, the Dry matter shoot ([4]; 300 g of a.s./ha) was 4117 mg/plant, the Nodules ([5]; 30 g of a.s./ha) was 34.3 number/plant and the Dry matter root ([5]; 30 g of a.s./ha) was 1380 mg/plant. For the same compound, the Dry matter shoot ([5]; 30 g of a.s./ha) was 2880 mg/plant, the Nodules ([5]; 300 g of a.s./ha) was 50.7 number/plant and the Dry matter root ([5]; 300 g of a.s./ha) was 1470 mg/plant. It also gave a Dry matter shoot ([5]; 300 g of a.s./ha) of 3940 mg/plant, a Nodules ([5]; 3000 g of a.s./ha) of 48.2 number/plant and a Dry matter root ([5]; 3000 g of a.s./ha) of 960 mg/plant. For the same compound, the Dry matter shoot ([5]; 3000 g of a.s./ha) was 2450 mg/plant, the Root nodules ([6]; 30 g of a.s./ha) was 10.7 number/plant and the Dry matter shoot ([6]; 30 g of a.s./ha) was 300 mg/plant. For the same compound, the Root nodules ([6]; 300 g of a.s./ha) was 10.3 number/plant and the Dry matter shoot ([6]; 300 g of a.s./ha) was 240 mg/plant.

Source: US6369003B1, “Process and composition for soil improvement by reducing microbially formed ethylene in the soil” (BASF Aktiengesellschaft, priority 1994, dated 2002)
